From patent US10450297B2, “Sulfonyl amide derivatives for the treatment of abnormal cell growth” (Pfizer, Inc., priority 2007, dated 2019)

The compounds below were run against FAK kinase (catalytic construct FAK(410-689)) (Homo sapiens (Human), UniProt Q05397) (assay: FAKcd kinase ELISA (inhibition of poly-glu-tyr phosphorylation by FAK(410-689))). Conditions: 50 μM final ATP.
Format: biochemical

FAK kinase (catalytic construct FAK(410-689)), sequence (Q05397 410-689): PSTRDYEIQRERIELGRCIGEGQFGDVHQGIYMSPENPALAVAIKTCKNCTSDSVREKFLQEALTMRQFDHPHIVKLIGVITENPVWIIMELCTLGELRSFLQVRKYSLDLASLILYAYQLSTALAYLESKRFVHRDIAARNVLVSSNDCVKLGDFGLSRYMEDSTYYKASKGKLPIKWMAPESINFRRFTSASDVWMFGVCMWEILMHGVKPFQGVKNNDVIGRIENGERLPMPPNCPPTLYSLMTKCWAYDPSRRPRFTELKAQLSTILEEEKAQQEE

| IC50 | Compound |
| --- | --- |
| < 0.595 nM | CN(c1ncccc1CNc1nc(Nc2ccc(/C(N)=N/O)cc2)ncc1C(F)(F)F)S(C)(=O)=O [Compound 407, N′-hydroxy-4-({4-[({2-[methyl(methylsulfonyl)amino]pyridin-3-yl}methyl)amino]-5-(trifluoromethyl)pyrimidin-2-yl}amino)benzenecarboximidamide] |
| 0.849 nM | CN(c1nccnc1CNc1nc(Nc2ccc(C(N)=O)c(O)c2)ncc1C(F)(F)F)S(C)(=O)=O [Compound 395, 2-hydroxy-4-({4-(({3-[methyl(methylsulfonyl)amino]pyrazin-2-yl}methyl)amino]-5-(trifluoromethyl)pyrimidin-2-yl}amino)benzamide] |
| 2.05 nM | CN(c1ncccc1CNc1nc(Nc2ccc(C(=O)N3CCCC3)cc2)ncc1C(F)(F)F)S(C)(=O)=O [Compound 237, N-methyl-N-[3-({[2-{[4-(pyrrolidin-1-ylcarbonyl)phenyl]amino}-5-(trifluoromethyl)pyrimidin-4-yl]amino}methyl)pyridin-2-yl]methanesulfonamide] |
| < 0.595 nM | CNC(=O)c1ccc(Nc2ncc(C(F)(F)F)c(NCc3cccnc3N(C)S(C)(=O)=O)n2)cc1C [Compound 402, N,2-dimethyl-4-({4-[({2-[methyl(methylsulfonyl)amino]pyridin-3-yl}methyl)amino]-5-(trifluoromethyl)pyrimidin-2-yl}amino)benzamide] |
| 1.57 nM | CN(c1ncccc1CNc1nc(Nc2ccc(C(=O)NCC(C)(C)CO)cc2)ncc1C(F)(F)F)S(C)(=O)=O [Compound 256, N-(3-hydroxy-2,2-dimethylpropyl)-4-({4-[({2-[methyl(methylsulfonyl)amino]pyridin-3-yl}methyl)amino]-5-(trifluoromethyl)pyrimidin-2-yl}amino)benzamide] |
| 1.33 nM | CN(C)CCCNC(=O)c1ccc(Nc2ncc(C(F)(F)F)c(NCc3cccnc3N(C)S(C)(=O)=O)n2)cc1 [Compound 233, N-[3-(dimethylamino)propyl]-4-({4-[({2-[methyl(methylsulfonyl)amino]pyridin-3-yl}methyl)amino]-5-(trifluoromethyl)pyrimidin-2-yl}amino)benzamide] |
| < 0.595 nM | C[C@@H](N)c1ccc(Nc2ncc(C(F)(F)F)c(NCc3cccc(N(C)S(C)(=O)=O)c3)n2)cc1 [Compound 353, N-[3-({[2-({4-[(1R)-1-aminoethyl]phenyl}amino)-5-(trifluoromethyl)pyrimidin-4-yl]amino}methyl)phenyl]-N-methylmethanesulfonamide] |
| 1.47 nM | CN(c1cccc(CNc2nc(Nc3ccc(C(N)=O)c(Cl)c3)ncc2C(F)(F)F)c1)S(C)(=O)=O [Compound 357, 2-chloro-4-{[4-({3-[methyl(methylsulfonyl)amino]benzyl}amino)-5-(trifluoromethyl)pyrimidin-2-yl]amino}benzamide] |
| 3.2 nM | CN(C)CCNC(=O)c1cccc(Nc2ncc(C(F)(F)F)c(NCc3cccnc3N(C)S(C)(=O)=O)n2)c1 [Compound 205, N-[2-(dimethylamino)ethyl]-3-({4-[({2-[methyl(methylsulfonyl)amino]pyridin-3-yl}methyl)amino]-5-(trifluoromethyl)pyrimidin-2-yl}amino)benzamide] |
| 0.6 nM | CN(c1ncccc1CNc1nc(Nc2cccc(C(=O)OC(C)(C)C)c2)ncc1C(F)(F)F)S(C)(=O)=O [Example 9, tert-butyl 3-({4-[({2-[methyl(methylsulfonyl)amino]pyridin-3-yl}methyl)amino]-5-(trifluoromethyl)pyrimidin-2-yl}amino)benzoate] |
| 5.93 nM | CN(c1ncccc1CNc1nc(Nc2cccc(C(=O)N3CCC(F)(F)C3)c2)ncc1C(F)(F)F)S(C)(=O)=O [Compound 177, N-[3-({(2-({3-[(3,3-difluoropyrrolidin-1-yl)carbonyl]phenyl}amino)-5-(trifluoromethyl)pyrimidin-4-yl]amino}methyl)pyridin-2-yl]-N-methylmethane-sulfonamide] |
| 1.11 nM | COc1ccc(C(N)=O)cc1Nc1ncc(C(F)(F)F)c(NCc2nccnc2N(C)S(C)(=O)=O)n1 [Compound 307, 4-methoxy-3-({4-[({3-[methyl(methylsulfonyl)amino)pyrazin-2-yl}methyl)amino]-5-(trifluoromethyl)pyrimidin-2-yl}amino)benzamide] |
| 1.14 nM | CN(c1ncccc1CNc1nc(Nc2cccc(C(=O)NC3CCCOC3)c2)ncc1C(F)(F)F)S(C)(=O)=O (stereo not shown) [Compound 119, 3-({4-[({2-[methyl(methylsulfonyl)amino]pyridin-3-yl}methyl)amlno]-5-(trifluoromethyl)pyrimidin-2-yl}amino)-N-(tetrahydro-2H-pyran-3-yl)benzamide] |
| 10.8 nM | CN(C(=O)c1cccc(Nc2ncc(C(F)(F)F)c(NCc3cccnc3N(C)S(C)(=O)=O)n2)c1)C1CCCC1 [Compound 131, N-cyclopentyl-N-methyl-3-({4-[({2-[methyl(methylsulfonyl)amino]pyridin-3-yl}methyl)amino]-5-(trifluoromethyl)pyrimidin-2-yl}amino)benzamide] |
| 1.24 nM | CN(c1nccnc1CNc1nc(Nc2ccc(C#N)c(O)c2)ncc1C(F)(F)F)S(C)(=O)=O [Compound 391, N-{3-[({2-[(4-cyano-3-hydroxyphenyl)amino]-5-(trifluoromethyl)pyrlmldin-4-yl}amino)methyl]pyrazin-2-yl}-N-methylmethane-sulfonamide] |
| 1.5 nM | CN(c1ncccc1CNc1nc(Nc2ccc(C(C)(C)O)cc2)ncc1C(F)(F)F)S(C)(=O)=O [Compound 323, N-[3-({[2-{[4-(1-hydroxy-1-methylethyl)phenyl]amino}-5-(trifluoromethyl)pyrimidin-4-yl]amino}methyl)pyridin-2-yl]-N-methylmethane-sulfonamide] |
